Results: patent publication US20240173307A1, “MODULATORS OF THE INTEGRATED STRESS PATHWAY” (Calico Life Sciences LLC, priority 2017, published 2024)

tested on: HEK293T cells carrying the ATF4 luciferase reporter; test: ATF4-Luc assay (in vitro model of vanishing white matter disease); type: cell-based; conditions: Homo sapiens, HEK-293T, 1 μg/mL tunicamycin, 7 hours
Protocol: In order to test exemplary compounds of the invention in a cellular context, a stable VWMD cell line was first constructed. The ATF4 reporter was prepared by fusing the human full-length ATF4 5′-UTR (NCBI Accession No. BCO22088.2) in front of the firefly luciferase (FLuc) coding sequence lacking the initiator methionine as described in Sidrauski et al (eLife 2013). The construct was used to produce recombinant retroviruses using standard methods and the resulting viral supernatant was used to transduce HEK293T cells, which were then subsequently selected with puromycin to generate a stable cell line.
HEK293T cells carrying the ATF4 luciferase reporter were plated on polylysine coated 384-well plates (Greiner Bio-one) at 30,000 cells per well. Cells were treated the next day with 1 μg/mL tunicamycin and 200 nM of a compound of Formula (I) for 7 hours. Luminescence was measured using One Glo (Promega) as specified by the manufacturer. Cells were maintained in DMEM with L-glutamine supplemented with 10% heat-inactivated FBS (Gibco) and Antibiotic-Antimycotic solution (Gibco).
Table 2 below summarizes the EC50 data obtained using the ATF4-Luc assay for exemplary compounds of the invention.

`O=C(COc1ccc(Cl)c(F)c1)NC12CCC(C(=O)Nc3ccc(OC(F)(F)F)cc3)(CC1)OC2` [Compound 336, 4-[2-(4-chloro-3-fluorophenoxy)acetamido]-N-[4-(trifluoromethoxy)phenyl]-2-oxabicyclo[2.2.2]octane-1-carboxamide] and `O=C(COc1ccc(Cl)c(F)c1)NC12CCC(C(=O)Nc3ccc(OC(F)(F)F)cn3)(CC1)CC2` [Compound 279, 4-[2-(4-chloro-3-fluorophenoxy)acetamido]-N-[5-(trifluoromethoxy)pyridin-2-yl]bicyclo[2.2.2]octane-1-carboxamide] cannot be ordered by EC50: less than 250 nM for the first, less than 250 nM for the second.

`O=C(COc1ccc(Cl)c(F)c1)NC12CC(C(=O)Nc3ccncc3)(C1)C2` [Compound 301, 3-[2-(4-chloro-3-fluorophenoxy)acetamido]-N-(pyridin-4-yl)bicyclo[1.1.1]pentane-1-carboxamide] and `O=C(COc1ccc(Cl)c(Cl)c1)NC12CC(C(=O)Nc3ccncc3)(C1)C2` [Compound 296, 3-[2-(3,4-dichlorophenoxy)acetamido]-N-(pyridin-4-yl)bicyclo[1.1.1]pentane-1-carboxamide] cannot be ordered by EC50: less than 250 nM for the first, less than 250 nM for the second.

`O=C(COc1ccc(Cl)c(F)c1)NC12CCC(C(=O)NCc3ccc(C(F)(F)F)cn3)(CC1)CC2O` (stereo not shown) [Compound 275, 4-[2-(4-chloro-3-fluorophenoxy)acetamido]-3-hydroxy-N-{[5-(trifluoromethyl)pyridin-2-yl]methyl}bicyclo[2.2.2]octane-1-carboxamide] and `O=C(COc1ccc(Cl)c(F)c1)NC12CCC(C(=O)NCc3ccc(C(F)(F)F)cc3)(CC1)C[C@H]2O` (single isomer, unassigned) [Compound 269] cannot be ordered by EC50: less than 250 nM for the first, less than 250 nM for the second.

`O=C(COc1ccc(Cl)c(F)c1)NC12CCC(C(=O)NCC(=O)c3ccc(Cl)c(F)c3)(CC1)[C@H](O)C2` [Compound 347, (2R)-4-[2-(4-chloro-3-fluorophenoxy)acetamido]-N-[2-(4-chloro-3-fluorophenyl)-2-oxoethyl]-2-hydroxybicyclo[2.2.2]octane-1-carboxamide] and `O=C(COc1ccc(Cl)c(F)c1)NC12CCC(C(=O)NCc3ccc(C(F)(F)F)cc3)(CC1)[C@@H](O)C2` (single isomer, unassigned) [Compound 266] cannot be ordered by EC50: less than 250 nM for the first, less than 250 nM for the second.

`O=C(COc1ccc(Cl)c(F)c1)NC12CC(C(=O)Nc3ccc(C(F)F)cn3)(C1)C2` [Compound 298, 3-[2-(4-chloro-3-fluorophenoxy)acetamido]-N-[5-(difluoromethyl)pyridin-2-yl]bicyclo[1.1.1]pentane-1-carboxamide] and `O=C(COc1ccc(Cl)c(F)c1)NC12CC(C(=O)Nc3cnc(C(F)F)cn3)(C1)C2` [Compound 284, 3-[2-(4-chloro-3-fluorophenoxy)acetamido]-N-[5-(difluoromethyl)pyrazin-2-yl]bicyclo[1.1.1]pentane-1-carboxamide] cannot be ordered by EC50: less than 250 nM for the first, less than 250 nM for the second.

Compared with `CC(NC(=O)C12CC(NC(=O)COc3ccc(Cl)c(F)c3)(C1)C2)c1cc2cc(Cl)ccc2o1` (stereo not shown) [Compound 330, N-[1-(5-chloro-1-benzofuran-2-yl)ethyl]-3-[2-(4-chloro-3-fluorophenoxy)acetamido]bicyclo[1.1.1]pentane-1-carboxamide], `O=C(COc1ccc(Cl)c(F)c1)NC12CC(C(=O)Nc3ccc(OC(F)F)nc3)(C1)C2` [Compound 282, 3-[2-(4-chloro-3-fluorophenoxy)acetamido]-N-[6-(difluoromethoxy)pyridin-3-yl]bicyclo[1.1.1]pentane-1-carboxamide] is lower in EC50: 1000 to 2000 nM for the first, less than 250 nM for the second. The second is the more potent here.

`O=C(COc1ccc(C(F)(F)F)nc1)NC12CC(C(=O)Nc3ccc(OC(F)(F)F)cn3)(C1)C2` [Compound 297, N-[5-(trifluoromethoxy)pyridin-2-yl]-3-(2-{[6-(trifluoromethyl)pyridin-3-yl]oxy}acetamido)bicyclo[1.1.1]pentane-1-carboxamide] and `O=C(COc1ccc(F)c(F)c1)NC12CC(C(=O)Nc3ccc(OC(F)(F)F)cn3)(C1)C2` [Compound 308, 3-[2-(3,4-difluorophenoxy)acetamido]-N-[5-(trifluoromethoxy)pyridin-2-yl]bicyclo[1.1.1]pentane-1-carboxamide] cannot be ordered by EC50: less than 250 nM for the first, less than 250 nM for the second.

Compared with `O=C(COc1ccc(Cl)c(F)c1)NC12CCC(C(=O)Nc3ccc(OC(F)F)nc3)(C1)C2` [Compound 268, 4-[2-(4-chloro-3-fluorophenoxy)acetamido]-N-[6-(difluoromethoxy)pyridin-3-yl]bicyclo[2.1.1]hexane-1-carboxamide], `O=C(COc1ccc(Cl)c(F)c1)NC12CC(C(=O)Nc3ccc(OCC(F)(F)F)nc3)(C1)C2` [Compound 310, 3-[2-(4-chloro-3-fluorophenoxy)acetamido]-N-[6-(2,2,2-trifluoroethoxy)pyridin-3-yl]bicyclo[1.1.1]pentane-1-carboxamide] is lower in EC50: 250 to 500 nM for the first, less than 250 nM for the second. The second is the more potent here.

`CCOc1cnc(NC(=O)C23CC(NC(=O)COc4ccc(Cl)c(F)c4)(C2)C3)cn1` [Compound 307, 3-[2-(4-chloro-3-fluorophenoxy)acetamido]-N-(5-ethoxypyrazin-2-yl)bicyclo[1.1.1]pentane-1-carboxamide] and `CCOC(=O)c1csc(NC(=O)C23CC(NC(=O)COc4ccc(Cl)c(F)c4)(C2)C3)n1` [Compound 312, ethyl 2-({3-[2-(4-chloro-3-fluorophenoxy)acetamido]bicyclo[1.1.1]pentane-1-carbonyl}amino)-1,3-thiazole-4-carboxylate] fall in the same range of EC50: 250 to 500 nM for the first, 250 to 500 nM for the second.

`O=C(COc1ccc(Cl)c(Cl)c1)NC12CC(C(=O)Nc3ccccn3)(C1)C2` [Compound 289, 3-[2-(3,4-dichlorophenoxy)acetamido]-N-(pyridin-2-yl)bicyclo[1.1.1]pentane-1-carboxamide] and `O=C(COc1ccc(Cl)c(Cl)c1)NC12CC(C(=O)Nc3ccc(OC(F)(F)F)cn3)(C1)C2` [Compound 291, 3-[2-(3,4-dichlorophenoxy)acetamido]-N-[5-(trifluoromethoxy)pyridin-2-yl]bicyclo[1.1.1]pentane-1-carboxamide] cannot be ordered by EC50: less than 250 nM for the first, less than 250 nM for the second.

`O=C(COc1ccc2c(c1)OC(F)(F)O2)NC12CC(C(=O)Nc3ccc(OC(F)(F)F)cn3)(C1)C2` [Compound 294, 3-{2-[(2,2-difluoro-2H-1,3-benzodioxol-5-yl)oxy]acetamido}-N-[5-(trifluoromethoxy)pyridin-2-yl]bicyclo[1.1.1]pentane-1-carboxamide] and `O=C(COc1ccc(Cl)c(F)c1)NC12CCC(C(=O)Nc3ccc(OC(F)(F)F)cn3)(C1)C2` [Compound 288, 4-[2-(4-chloro-3-fluorophenoxy)acetamido]-N-[5-(trifluoromethoxy)pyridin-2-yl]bicyclo[2.1.1]hexane-1-carboxamide] cannot be ordered by EC50: less than 250 nM for the first, less than 250 nM for the second.

First: O=C(COc1ccc(Cl)c(F)c1)NC12CCC(C(=O)NCc3ccc(C(F)(F)F)cn3)(CC1)C(=O)N2CCO [Compound 329, 1-[2-(4-chloro-3-fluorophenoxy)acetamido]-2-(2-hydroxyethyl)-3-oxo-N-{[5-(trifluoromethyl)pyridin-2-yl]methyl}-2-azabicyclo[2.2.2]octane-4-carboxamide]
Second: O=C(COc1ccc(Cl)c(F)c1)NC12CCC(C(=O)Nc3ccc(OCC(F)(F)F)nc3)(CC1)CC2 [Compound 281, 4-[2-(4-chloro-3-fluorophenoxy)acetamido]-N-[6-(2,2,2-trifluoroethoxy)pyridin-3-yl]bicyclo[2.2.2]octane-1-carboxamide]
The EC50 of the first is lower: less than 250 nM for the first, greater than 2000 nM for the second. The first is the more potent here.

First: COc1ccc(CNC(=O)C23CC(NC(=O)COc4ccc(Cl)c(F)c4)(C2)C3)nn1 [Compound 322, 3-[2-(4-chloro-3-fluorophenoxy)acetamido]-N-[(6-methoxypyridazin-3-yl)methyl]bicyclo[1.1.1]pentane-1-carboxamide]
Second: O=C(COc1ccc(Cl)c(F)c1)NC12CC(C(=O)NCCCc3cccnc3)(C1)C2 [Compound 253, 3-[2-(4-chloro-3-fluorophenoxy)acetamido]-N-[3-(pyridin-3-yl)propyl]bicyclo[1.1.1]pentane-1-carboxamide]
The EC50 of the first is higher: greater than 2000 nM for the first, 1000 to 2000 nM for the second. The second is the more potent here.

`O=C(COc1ccc(Cl)c(F)c1)NC12CCC(C(=O)NCc3ccccn3)(CC1)CC2` [Compound 259, 4-[2-(4-chloro-3-fluorophenoxy)acetamido]-N-[(pyridin-2-yl)methyl]bicyclo[2.2.2]octane-1-carboxamide] and `Cc1cnc(CNC(=O)C23CCC(NC(=O)COc4ccc(Cl)c(F)c4)(CC2)CC3)cn1` [Compound 258, 4-[2-(4-chloro-3-fluorophenoxy)acetamido]-N-[(5-methylpyrazin-2-yl)methyl]bicyclo[2.2.2]octane-1-carboxamide] fall in the same range of EC50: 500 to 1000 nM for the first, 500 to 1000 nM for the second.

First: O=C(COc1ccc(Cl)c(F)c1)NC12CCC(C(=O)NCc3ccc(Cl)c(F)c3)(CC1)OC2 [Compound 334, 4-[2-(4-chloro-3-fluorophenoxy)acetamido]-N-[(4-chloro-3-fluorophenyl)methyl]-2-oxabicyclo[2.2.2]octane-1-carboxamide]
Second: NC(=O)CN(Cc1ccc(Cl)c(F)c1)C(=O)C12CCC(NC(=O)COc3ccc(Cl)c(F)c3)(CC1)CC2 [Compound 320, N-(2-amino-2-oxoethyl)-4-[2-(4-chloro-3-fluorophenoxy)acetamido]-N-[(4-chloro-3-fluorophenyl)methyl]bicyclo[2.2.2]octane-1-carboxamide]
The EC50 of the first is lower: 250 to 500 nM for the first, 500 to 1000 nM for the second.

Work on `O=C(COc1ccc(Cl)c(F)c1)NC12CCC(C(=O)NCc3nc4cc(F)c(F)cc4[nH]3)(CC1)CC2O` (stereo not shown) [Compound 319, 4-[2-(4-chloro-3-fluorophenoxy)acetamido]-N-[(5,6-difluoro-1H-benzimidazol-2-yl)methyl]-3-hydroxybicyclo[2.2.2]octane-1-carboxamide] yielded an EC50 of less than 250 nM.
